Source: US20260201438A1 (priority 2022, published 2026)
In brackets after ≈: the same amount, converted by molar mass.

Key:
E. coli ATCC 25922 [1] = assay: reference broth microdilution (rBMD); type: cell-based; settings: Escherichia coli, ATCC25922, read-out: MIC rBMD, E. coli ATCC 25922, isolates from urine cultures; geometric mean, n = 3
S. aureus ATCC 29213 = settings: CLSI M100-Ed35; cited from earlier work
E. coli ATCC 25922 [2] = settings: CLSI M100-Ed35; cited from earlier work

SMILES: Cc1nnc(SCC2=C(C(=O)O)N3C(=O)[C@@H](NC(=O)Cn4cnnn4)[C@H]3SC2)s1 [Cefazolin]
- MIC (E. coli ATCC 25922 [1]): 2 µg/mL (≈ 4.4 µM)

SMILES: CO[C@@]1(NC(=O)Cc2cccs2)C(=O)N2C(C(=O)O)=C(COC(N)=O)CS[C@@H]21 [Cefoxitin]
- MIC CLSI QC Range (S. aureus ATCC 29213): 1.0 to 4.0 µg/mL

SMILES: CO/N=C(\C(=O)N[C@@H]1C(=O)N2C(C(=O)O)=C(CSc3nc(=O)c(=O)[nH]n3C)CS[C@H]12)c1csc(N)n1 [Ceftriaxone]
- MIC CLSI QC Range (E. coli ATCC 25922 [2]): 0.03 to 0.12 µg/mL
- MIC CLSI QC Range (S. aureus ATCC 29213): 1.0 to 8.0 µg/mL

SMILES: CO/N=C(\C(=O)N[C@@H]1C(=O)N2C(C(=O)O)=C(COC(N)=O)CS[C@H]12)c1ccco1 [Cefuroxime]
- MIC CLSI QC Range (E. coli ATCC 25922 [2]): 2.0 to 8.0 µg/mL

SMILES: C[C@@H](O)[C@H]1C(=O)N2C(C(=O)O)=C(S[C@@H]3CN[C@H](C(=O)N(C)C)C3)[C@H](C)[C@H]12 [Meropenem]
- MIC CLSI QC Range (E. coli ATCC 25922 [2]): 0.008 to 0.06 µg/mL
- MIC CLSI QC Range (S. aureus ATCC 29213): 0.03 to 0.12 µg/mL
